Measured values from patent US11230542B2, “Inhibitors of integrated stress response pathway” (Praxis Biotech LLC, priority 2017, dated 2022).
pIC50: −log10 of the molar value. Where two headings read alike, the source gives them in different places.

What was measured:
[1] = test system: ATF4; assay: ATF4 expression inhibition assay (thapsigargin-stressed HEK293T cells, western blot); assay type: cell-based; settings: Homo sapiens, HEK-293T; for pIC50: 3 h with 100 nM Tg, test compound 1 nM to 1 μM; for inhibition at 0.1 µM: 3 h with 100 nM thapsigargin (Tg) and 100 nM test compound; for inhibition at 0.1 µM / inhibition at 1 µM: Tg alone 0%, untreated 100%; for inhibition at 1 µM: 3 h with 100 nM thapsigargin (Tg) and 1 μM test compound
Protocol: HEK293T cells were maintained at 37° C. and 5% CO2 in Dulbecco's Modified Eagle's Media (DMEM) supplemented with 10% fetal bovine serum (FBS), 2 mM L-glutamine, 100 U/ml penicillin, and 100 μg/ml streptomycin. […] Cells without treatment or cells treated with Tg alone were used as controls.
After 3 hours of treatment with Tg and the test compound, cells were lysed with SDS-PAGE lysis buffer. Lysates were transferred to 1.5 ml tubes and sonicated for 3 min, and total protein amounts were quantified using BCA Protein Assay Kit (Pierce). Equal amount of proteins were loaded on SDS-PAGE gels. Proteins were transferred onto 0.2 μm PVDF membranes (BioRad) and probed with primary antibodies diluted in Tris-buffered saline supplemented with 0.1% Tween 20 and 3% bovine serum albumin.
(§1) ATF4 (11815) antibody was used as primary antibody (Cell Signaling Technologies). A horseradish peroxidase (HRP)-conjugated secondary antibody (Rockland) was employed to detect immune-reactive bands using enhanced chemiluminescence (ECL Western Blotting Substrate, Pierce). Quantification of protein bands was done by densitometry using ImageJ.
Percentages of ATF4 inhibition after induction with Tg in the presence of 100 nM or 1 μM of certain test compounds are shown in Table 2 and FIG. 1. Percentage of ATF4 inhibition was calculated as the percent reduction normalized to Tg treatment (0% inhibition) and untreated cells (100% inhibition). Also shown in Table 2 is the calculated IC50 for the test compounds. […] Accordingly, inhibition of ATF4 expression as a result of the test compound indicates suppression of the ISR pathway.

[2] = test system: CHO cells; assay: Protein translation assay (puromycin incorporation in CHO cells, unstressed or Tg-stressed); assay type: cell-based, Chinese hamster; settings: Cricetulus griseus, media alone 100%; for activity at 0.1 µM: read-out: % Recovery of protein expression (100 nM test compound)
Protocol: CHO cells were maintained at 37° C. and 5% CO2 in DMEM supplemented with 10% fetal bovine serum (FBS), 2 mM L-glutamine, 100 U/ml penicillin, and 100 μg/ml streptomycin. After reaching 80% of confluence, cells were detached and seeded on 6 well plates in complete media, allowed to recover overnight and treated for 2 hours with 1 μM of the test compound (to assess protein synthesis levels in unstressed condition), or for 1 hour with 100 nM and 1 μM of the test compound and then co-treated with 300 nM Tg and 100 nM and 1 μM of the test compound (to assess the recovery of protein synthesis in a stressed condition). Cells treated with Tg alone were used as controls.
After the 2 hours treatments, media were replaced by adding 10 μg/ml puromycin (Sigma Aldrich) in complete media for 30 min. Media were removed and cells were lysed with SDS-PAGE lysis buffer. Lysates were transferred to 1.5 ml tubes and sonicated for 3 minutes and total protein amount were quantified using BCA Protein Assay Kit (Pierce). Equal amount of protein (30 μg) was loaded on SDS-PAGE gels. Proteins were transferred onto 0.2 μm PVDF membranes (BioRad) and probed with primary antibodies diluted in Tris-buffered saline supplemented with 0.1% Tween 20 and 3% bovine serum albumin.
as §1, with “Puromycin (12D10)” for “ATF4 (11815)”, “(Merck Millipore).” for “(Cell Signaling Technologies).”, “HRP-conjugated” for “horseradish peroxidase (HRP)-conjugated”
Percent increase of protein synthesis in unstressed cells (without Tg treatment) in the presence of media alone or certain test compounds is shown in Table 3 and FIG. 2. The percentage levels were normalized to the media alone condition, which correspond to 100% protein synthesis.
Percent recovery of protein synthesis in stressed cells (with Tg treatment) due to the test compounds at 100 nM or 1 μM is shown in FIGS. 3A and 3B, respectively, and in Table 3. The levels were normalized to the media alone and to Tg alone conditions, which correspond to 100% and 0% respectively.

[3] = CHO cells stressed with 300 nM Tg, Tg alone 0%
[4] = CHO cells stressed with 300 nM Tg, Tg alone 0%, read-out: % Recovery of protein expression (1 μM test compound)
[5] = unstressed CHO cells, 2 h, read-out: % Protein expression relative to untreated (1 μM test compound)

For `O=C(COc1ccc(Cl)cc1)N[C@H]1CC[C@H](NC(=O)C2CNc3cc(Cl)ccc3O2)CC1` (stereo partly drawn) [Compound 156, trans-6-chloro-N-(4-(2-(4-chlorophenoxy)acetamido)cyclohexyl)-3,4-dihydro-2H-benzo[b][1,4]oxazine-2-carboxamide], the pIC50 [1] was 7.80, the inhibition at 0.1 µM [1] was 94% and the inhibition at 1 µM [1] was 97%. It also gave an activity at 0.1 µM [2, 3] of 25.1%, an activity at 1 µM [2, 4] of 200% and an activity at 1 µM [2, 5] of 197%.
In the case of `O=C(COc1ccc(Cl)c(F)c1)NC1CCN(CCCOc2ccc(Cl)c(F)c2)CC1` [Compound 28, 2-(4-chloro-3-fluorophenoxy)-N-(1-(3-(4-chloro-3-fluorophenoxy)propyl)piperidin-4-yl)acetamide], the pIC50 [1] was 7.59, the inhibition at 0.1 µM [1] was 88% and the inhibition at 1 µM [1] was 97%. The activity at 0.1 µM [2, 3] was 38%, the activity at 1 µM [2, 4] was 170% and the activity at 1 µM [2, 5] was 99.3%.
In the case of `O=C(COc1ccc(Cl)c(F)c1)N[C@H]1CC[C@H](NC(=O)C2Cc3cc(Cl)ccc3O2)CC1` (stereo partly drawn) [Compound 19, trans-5-chloro-N-(4-(2-(4-chloro-3-fluorophenoxy)acetamido)cyclohexyl)-2,3-dihydrobenzofuran-2-carboxamide], the inhibition at 0.1 µM [1] was 94%, the inhibition at 1 µM [1] was 100% and the activity at 0.1 µM [2, 3] was 14.1%. For the same molecule, the activity at 1 µM [2, 4] was 116%.
`O=C(NC1CCN(CC(O)COc2ccc(Cl)c(F)c2)CC1)c1ccc2cc(Cl)ccc2n1` (stereo not drawn) [Compound 22, 6-chloro-N-(1-(3-(4-chloro-3-fluorophenoxy)-2-hydroxypropyl)piperidin-4-yl)quinoline-2-carboxamide] gave a pIC50 [1] of 6.99, an inhibition at 0.1 µM [1] of 21% and an inhibition at 1 µM [1] of 81%. For the same molecule, the activity at 0.1 µM [2, 3] was 67.3%, the activity at 1 µM [2, 4] was 264% and the activity at 1 µM [2, 5] was 170%.
In the case of `O=C(COc1ccc(Cl)c(F)c1)N[C@H]1CC[C@H](NC(=O)c2ccc3cc(Cl)ccc3n2)CC1` [Compound 23, trans-6-chloro-N-(4-(2-(4-chloro-3-fluorophenoxy)acetamido)cyclohexyl)quinoline-2-carboxamide], the pIC50 [1] was 8.68, the inhibition at 0.1 µM [1] was 97% and the inhibition at 1 µM [1] was 99%. It also gave an activity at 0.1 µM [2, 3] of 79.2%, an activity at 1 µM [2, 4] of 176% and an activity at 1 µM [2, 5] of 120%.
Work on `O=C(N[C@H]1CC[C@H](NC[C@@H](O)COc2ccc(Cl)c(F)c2)CC1)c1cc2cc(Cl)ccc2o1` (single isomer, unassigned) [Compound 154, (+)-trans-5-chloro-N-(4-((3-(4-chloro-3-fluorophenoxy)-2-hydroxypropyl)amino)cyclohexyl)benzofuran-2-carboxamide] yielded a pIC50 [1] of 7.86, an inhibition at 0.1 µM [1] of 92% and an inhibition at 1 µM [1] of 96%. The activity at 0.1 µM [2, 3] was 96.3%, the activity at 1 µM [2, 4] was 234% and the activity at 1 µM [2, 5] was 188%.
`O=C(COc1ccc(Cl)cc1)N[C@H]1CC[C@H](N2CC(COc3ccc(Cl)cc3)OC2=O)CC1` (stereo partly drawn) [Compound 159, trans-2-(4-chlorophenoxy)-N-(4-(5-((4-chlorophenoxy)methyl)-2-oxooxazolidin-3-yl)cyclohexyl)acetamide] was tested, and the pIC50 [1] was > 7.00, the inhibition at 0.1 µM [1] was 52% and the inhibition at 1 µM [1] was 84%. It also gave an activity at 0.1 µM [2, 3] of 23.9% and an activity at 1 µM [2, 4] of 79.4%.
`O=C(COc1ccc(Cl)cc1)NC1CCN(CC(O)COc2ccc(Cl)cc2)CC1` (stereo not drawn) [Compound 5, 2-(4-chlorophenoxy)-N-(1-(3-(4-chlorophenoxy)-2-hydroxypropyl)piperidin-4-yl)acetamide] was tested, and the pIC50 [1] was 6.77, the inhibition at 0.1 µM [1] was 42% and the inhibition at 1 µM [1] was 94%. It also gave an activity at 0.1 µM [2, 3] of 64.9%, an activity at 1 µM [2, 4] of 189% and an activity at 1 µM [2, 5] of 130%.
Molecule `O=C(COc1ccc(Cl)c(F)c1)N[C@H]1CC[C@H](NC(=O)c2ccc3cc(Cl)ccc3c2)CC1` [Compound 145, trans-6-chloro-N-(4-(2-(4-chloro-3-fluorophenoxy)acetamido)cyclohexyl)-2-naphthamide] has a pIC50 [1] of 7.77, an inhibition at 0.1 µM [1] of 97% and an inhibition at 1 µM [1] of 97%. It also gave an activity at 0.1 µM [2, 3] of 22.6%, an activity at 1 µM [2, 4] of 40.6% and an activity at 1 µM [2, 5] of 95.4%.
`O=C(COc1ccc(Cl)c(F)c1)N[C@H]1CC[C@H](NC[C@@H](O)COc2ccc(Cl)c(F)c2)CC1` (single isomer, unassigned) [Compound 6, (+)-2-(4-chloro-3-fluorophenoxy)-N-(4-((3-(4-chloro-3-fluorophenoxy)-2-hydroxypropyl)amino)cyclohexyl)acetamide] showed a pIC50 [1] of 7.08, an inhibition at 0.1 µM [1] of 52% and an inhibition at 1 µM [1] of 83%. The activity at 0.1 µM [2, 3] was 60.2%, the activity at 1 µM [2, 4] was 197% and the activity at 1 µM [2, 5] was 195%.
Work on `O=C(NC1CCN(CCCOc2ccc(Cl)c(F)c2)CC1)c1cc2cc(Cl)ccc2o1` [Compound 148, 5-chloro-N-(1-(3-(4-chloro-3-fluorophenoxy)propyl)piperidin-4-yl)benzofuran-2-carboxamide] yielded an inhibition at 0.1 µM [1] of 30%, an inhibition at 1 µM [1] of 90% and an activity at 0.1 µM [2, 3] of 37.2%. The activity at 1 µM [2, 4] was 250% and the activity at 1 µM [2, 5] was 123%.
`O=C(NC1CCN(CC(O)COc2ccc(Cl)c(F)c2)CC1)c1ccc2cc(Cl)ccc2c1` (stereo not drawn) [Compound 21, 6-chloro-N-(1-(3-(4-chloro-3-fluorophenoxy)-2-hydroxypropyl)piperidin-4-yl)-2-naphthamide] gave an inhibition at 0.1 µM [1] of 54%, an inhibition at 1 µM [1] of 78% and an activity at 0.1 µM [2, 3] of 70.5%. For the same molecule, the activity at 1 µM [2, 4] was 182%.
`O=C(N[C@H]1CC[C@H](NCC(O)COc2ccc(Cl)c(F)c2)CC1)c1cc2cc(Cl)ccc2o1` (stereo partly drawn) [Compound 147, trans-5-chloro-N-(4-((3-(4-chloro-3-fluorophenoxy)-2-hydroxypropyl)amino)cyclohexyl)benzofuran-2-carboxamide] gave a pIC50 [1] of 7.48, an inhibition at 0.1 µM [1] of 95% and an inhibition at 1 µM [1] of 100%. For the same molecule, the activity at 0.1 µM [2, 3] was 75.2%, the activity at 1 µM [2, 4] was 262% and the activity at 1 µM [2, 5] was 190%.
`O=C(NC1CCN(C[C@H](O)COc2ccc(Cl)c(F)c2)CC1)c1cc2cc(Cl)ccc2o1` (single isomer, unassigned) [Compound 149, (+)-5-chloro-N-(1-(3-(4-chloro-3-fluorophenoxy)-2-hydroxypropyl)piperidin-4-yl)benzofuran-2-carboxamide] was tested, and the pIC50 [1] was 7.53, the inhibition at 0.1 µM [1] was 62% and the inhibition at 1 µM [1] was 96%. The activity at 0.1 µM [2, 3] was 107%, the activity at 1 µM [2, 4] was 281% and the activity at 1 µM [2, 5] was 138%.
`O=C(COc1ccc(Cl)c(F)c1)N[C@H]1CC[C@H](NCC(O)COc2ccc(Cl)c(F)c2)CC1` (stereo partly drawn) [Compound 2, trans-2-(4-chloro-3-fluorophenoxy)-N-(4-((3-(4-chloro-3-fluorophenoxy)-2-hydroxypropyl)amino)cyclohexyl)acetamide] gave a pIC50 [1] of 6.79, an inhibition at 0.1 µM [1] of 40% and an inhibition at 1 µM [1] of 56%. The activity at 0.1 µM [2, 3] was 42.5%, the activity at 1 µM [2, 4] was 135% and the activity at 1 µM [2, 5] was 136%.
`O=C(COc1ccc(Cl)cc1)N[C@H]1CC[C@H](NCC(O)COc2ccc(Cl)cc2)CC1` (stereo partly drawn) [Compound 1, trans-2-(4-chlorophenoxy)-N-(4-((3-(4-chlorophenoxy)-2-hydroxypropyl)amino)cyclohexyl)acetamide] gave a pIC50 [1] of 6.45, an inhibition at 0.1 µM [1] of 0% and an inhibition at 1 µM [1] of 71%. For the same molecule, the activity at 0.1 µM [2, 3] was 63.8%, the activity at 1 µM [2, 4] was 160% and the activity at 1 µM [2, 5] was 152%.
